Results reported in patent US20260151383A1, “HETEROCYCLIC COMPOUNDS AND USES THEREOF” (KayoThera Inc., priority 2022, published 2026).
pIC50: −log10 of the molar value.

Tests used:
Format in all cases: biochemical
Settings in all cases: recombinant enzyme, 20° C., activity level classes
hALDH1a3 = target: T1, hALDH1a3 (Homo sapiens, UniProt P47895); experiment: Aldh1a3 enzyme inhibition assay (resorufin fluorescence), human enzyme
T1 construct: made in house; host or cells: E. coli BL21-DE3
T1 sequence (P47895 1-512): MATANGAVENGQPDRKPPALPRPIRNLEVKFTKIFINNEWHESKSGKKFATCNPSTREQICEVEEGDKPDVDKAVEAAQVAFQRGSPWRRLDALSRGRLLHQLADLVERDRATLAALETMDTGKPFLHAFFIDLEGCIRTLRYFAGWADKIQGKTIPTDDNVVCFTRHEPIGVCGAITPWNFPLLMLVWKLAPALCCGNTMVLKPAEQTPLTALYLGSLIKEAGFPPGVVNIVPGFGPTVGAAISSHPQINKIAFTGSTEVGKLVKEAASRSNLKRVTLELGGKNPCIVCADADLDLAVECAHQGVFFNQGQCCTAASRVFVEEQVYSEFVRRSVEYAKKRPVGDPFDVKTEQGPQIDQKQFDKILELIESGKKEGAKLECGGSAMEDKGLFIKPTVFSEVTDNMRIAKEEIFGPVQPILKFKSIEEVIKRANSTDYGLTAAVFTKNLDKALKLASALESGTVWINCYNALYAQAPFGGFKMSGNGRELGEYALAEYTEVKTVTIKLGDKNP

mALDH1a3 = target: T2, mALDH1a3 (Mus musculus, UniProt Q9JHW9); experiment: Aldh1a3 enzyme inhibition assay (resorufin fluorescence), mouse enzyme
T2 construct: made in house; host or cells: E. coli BL21-DE3
T2 sequence (Q9JHW9 1-512): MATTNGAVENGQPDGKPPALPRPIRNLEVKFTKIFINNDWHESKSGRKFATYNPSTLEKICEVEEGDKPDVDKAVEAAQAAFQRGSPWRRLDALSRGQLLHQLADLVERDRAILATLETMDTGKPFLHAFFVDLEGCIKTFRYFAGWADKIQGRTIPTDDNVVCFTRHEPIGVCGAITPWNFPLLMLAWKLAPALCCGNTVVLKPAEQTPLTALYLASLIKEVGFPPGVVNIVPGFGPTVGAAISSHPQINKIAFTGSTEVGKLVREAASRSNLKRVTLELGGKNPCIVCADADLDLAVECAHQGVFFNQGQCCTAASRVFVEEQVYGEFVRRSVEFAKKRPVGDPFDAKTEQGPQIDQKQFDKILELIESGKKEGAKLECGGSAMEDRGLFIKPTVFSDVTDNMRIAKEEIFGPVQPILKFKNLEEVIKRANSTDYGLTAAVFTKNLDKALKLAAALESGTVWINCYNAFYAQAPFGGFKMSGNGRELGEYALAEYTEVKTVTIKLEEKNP
Source text: Recombinant enzyme and inhibitor added immediately before assay. Reaction rate measured by resorufin fluorescence.

hALDH1a2 = target: T3, hALDH1a2 (Homo sapiens, UniProt O94788); experiment: Aldh1a2 enzyme inhibition assay (resorufin fluorescence), human enzyme
T3 construct: made in house; host or cells: E. coli BL21-DE3
T3 sequence (O94788 1-518): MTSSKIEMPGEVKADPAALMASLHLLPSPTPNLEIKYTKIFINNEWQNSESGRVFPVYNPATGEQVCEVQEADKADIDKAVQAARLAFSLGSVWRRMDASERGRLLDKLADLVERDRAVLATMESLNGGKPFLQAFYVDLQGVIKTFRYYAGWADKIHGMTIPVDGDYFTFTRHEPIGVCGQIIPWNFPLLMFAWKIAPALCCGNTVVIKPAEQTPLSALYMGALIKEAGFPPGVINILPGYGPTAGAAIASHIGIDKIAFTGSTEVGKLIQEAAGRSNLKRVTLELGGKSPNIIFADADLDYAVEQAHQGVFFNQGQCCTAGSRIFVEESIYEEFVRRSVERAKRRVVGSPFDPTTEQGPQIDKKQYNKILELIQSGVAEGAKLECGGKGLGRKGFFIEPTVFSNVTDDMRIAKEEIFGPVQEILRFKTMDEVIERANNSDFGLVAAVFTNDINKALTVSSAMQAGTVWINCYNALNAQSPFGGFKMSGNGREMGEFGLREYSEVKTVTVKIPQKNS
Source text: (§1) Recombinant enzyme and inhibitor added immediately before assay. Reaction rate measured by resorufln fluorescence.

mALDH1a2 = target: T4, mALDH1a2 (Mus musculus, UniProt Q62148); experiment: Aldh1a2 enzyme inhibition assay (resorufin fluorescence), mouse enzyme
T4 construct: made in house; host or cells: E. coli BL21-DE3
T4 sequence (Q62148 1-518): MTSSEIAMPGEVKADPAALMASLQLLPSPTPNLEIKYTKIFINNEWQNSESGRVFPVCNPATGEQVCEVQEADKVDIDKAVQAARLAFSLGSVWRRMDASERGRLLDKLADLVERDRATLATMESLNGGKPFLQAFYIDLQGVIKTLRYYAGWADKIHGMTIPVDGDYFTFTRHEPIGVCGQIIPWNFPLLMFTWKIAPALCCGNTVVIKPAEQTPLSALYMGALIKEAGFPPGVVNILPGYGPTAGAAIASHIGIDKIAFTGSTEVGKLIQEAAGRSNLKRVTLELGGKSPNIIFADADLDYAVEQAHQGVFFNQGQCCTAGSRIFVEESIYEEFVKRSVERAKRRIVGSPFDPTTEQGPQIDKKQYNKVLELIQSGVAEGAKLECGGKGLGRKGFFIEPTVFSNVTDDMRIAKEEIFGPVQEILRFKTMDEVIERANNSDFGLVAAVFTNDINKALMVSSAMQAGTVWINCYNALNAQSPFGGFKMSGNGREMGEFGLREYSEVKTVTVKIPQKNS
Source text: as §1

pIC50 (hALDH1a3)	mAldh1a3 IC50 (mALDH1a3)	pIC50 (hALDH1a2)	pIC50 (mALDH1a2)	pIC50 (mALDH1a3)	SMILES
< 5.30	No activity	5.30 to 6.00	5.30 to 6.00	–	O=C1CCc2cc(NC(=O)c3ccncc3-c3ccccc3F)ccc2N1 [Compound 25]
5.30 to 6.00	No activity	6.60 to 7.00	6.60 to 7.00	–	O=C1CCc2cc(NC(=O)c3ccncc3-c3ccccc3F)cc(Cl)c2N1 [Compound 26]
> 7.00	–	6.60 to 7.00	6.60 to 7.00	6.00 to 6.60	Cc1cc(NC(=O)c2ccncc2CC2(C)CC2)cc2c1NC(=O)CC2 [Compound 27]
< 5.30	–	< 5.30	< 5.30	5.30 to 6.00	Cc1cc(NC(=O)c2ccncc2CC(F)(F)F)cc2c1NC(=O)CS2(=O)=O [Compound 28]
6.60 to 7.00	–	6.00 to 6.60	6.00 to 6.60	> 7.00	Cc1cc(NC(=O)c2scnc2CC(F)(F)F)cc2c1NC(=O)CC2 [Compound 31]
6.60 to 7.00	–	6.00 to 6.60	6.00 to 6.60	> 7.00	CCc1ncsc1C(=O)Nc1cc(C)c2c(c1)CCC(=O)N2 [Compound 32]
6.60 to 7.00	–	> 7.00	> 7.00	> 7.00	Cc1cc(NC(=O)c2scnc2CC(F)(F)F)cc2c1NC(=O)C1CC21 (stereo not drawn) [Compound 33]
> 7.00	–	> 7.00	> 7.00	> 7.00	CCc1ncsc1C(=O)Nc1cc(C)c2c(c1)C1CC1C(=O)N2 (stereo not drawn) [Compound 34]
6.60 to 7.00	–	6.00 to 6.60	6.00 to 6.60	> 7.00	O=C1CCc2cc(NC(=O)c3scnc3CC(F)(F)F)cc(Cl)c2N1 [Compound 35]
6.60 to 7.00	–	6.00 to 6.60	6.00 to 6.60	> 7.00	CCc1ncsc1C(=O)Nc1cc(Cl)c2c(c1)CCC(=O)N2 [Compound 36]
6.60 to 7.00	–	6.60 to 7.00	6.60 to 7.00	> 7.00	O=C(Nc1cc(Cl)c2c(c1)C1CC1C(=O)N2)c1scnc1CC(F)(F)F (stereo not drawn) [Compound 37]
6.60 to 7.00	–	6.60 to 7.00	6.60 to 7.00	> 7.00	CCc1ncsc1C(=O)Nc1cc(Cl)c2c(c1)C1CC1C(=O)N2 (stereo not drawn) [Compound 38]
6.00 to 6.60	–	6.00 to 6.60	6.00 to 6.60	6.00 to 6.60	CCc1scnc1C(=O)Nc1cc(C)c2c(c1)C1CC1C(=O)N2 (stereo not drawn) [Compound 39]
> 7.00	–	> 7.00	> 7.00	> 7.00	Cc1cc(NC(=O)c2ncsc2CC(F)(F)F)cc2c1NC(=O)C1CC21 (stereo not drawn) [Compound 40]
> 7.00	–	> 7.00	> 7.00	> 7.00	CCc1cnsc1C(=O)Nc1cc(C)c2c(c1)C1CC1C(=O)N2 (stereo not drawn) [Compound 41]
6.60 to 7.00	–	6.00 to 6.60	5.30 to 6.00	> 7.00	O=C(Nc1cc(Cl)c2c(c1)C1CC1C(=O)N2)c1scnc1CC(F)(F)F (stereo not drawn) [Compound 42]
6.60 to 7.00	–	5.30 to 6.00	5.30 to 6.00	> 7.00	CCc1ncsc1C(=O)Nc1cc(Cl)c2c(c1)C1CC1C(=O)N2 (stereo not drawn) [Compound 43]
5.30 to 6.00	–	5.30 to 6.00	5.30 to 6.00	6.60 to 7.00	CCc1scnc1C(=O)Nc1cc(Cl)c2c(c1)CCC(=O)N2 [Compound 44]

pIC50 (hALDH1a3)	mAldh1a3 IC50 (mALDH1a3)	pIC50 (hALDH1a2)	pIC50 (mALDH1a2)	pIC50 (mALDH1a3)	SMILES
5.30 to 6.00	–	6.00 to 6.60	6.00 to 6.60	6.60 to 7.00	CCc1scnc1C(=O)Nc1cc2c(c(C3CC3)c1)NC(=O)CC2 [Compound 45]
6.60 to 7.00	–	6.60 to 7.00	6.60 to 7.00	> 7.00	CCc1csnc1C(=O)Nc1cc(C)c2c(c1)C1CC1C(=O)N2 (stereo not drawn) [Compound 46]
6.60 to 7.00	–	6.60 to 7.00	6.60 to 7.00	> 7.00	CCc1cnsc1C(=O)Nc1cc(C)c2c(c1)CCC(=O)N2 [Compound 48]
> 7.00	–	> 7.00	6.60 to 7.00	> 7.00	Cc1cc(NC(=O)c2cnsc2CC(F)(F)F)cc2c1NC(=O)CC2 [Compound 49]
6.00 to 6.60	–	6.00 to 6.60	6.00 to 6.60	> 7.00	CCc1sncc1C(=O)Nc1cc(C)c2c(c1)CCC(=O)N2 [Compound 50]
6.60 to 7.00	–	> 7.00	6.60 to 7.00	> 7.00	CCc1sncc1C(=O)Nc1cc(C)c2c(c1)C1CC1C(=O)N2 (stereo not drawn) [Compound 52]
6.00 to 6.60	–	5.30 to 6.00	5.30 to 6.00	6.60 to 7.00	Cc1cc(NC(=O)c2ocnc2CC(F)(F)F)cc2c1NC(=O)CC2 [Compound 56]
6.00 to 6.60	–	5.30 to 6.00	5.30 to 6.00	6.60 to 7.00	CCc1ncoc1C(=O)Nc1cc(C)c2c(c1)CCC(=O)N2 [Compound 57]
5.30 to 6.00	–	5.30 to 6.00	5.30 to 6.00	6.00 to 6.60	CCc1nc[nH]c1C(=O)Nc1cc(C)c2c(c1)CCC(=O)N2 [Compound 59]
6.00 to 6.60	–	6.00 to 6.60	6.00 to 6.60	6.60 to 7.00	CCc1ncoc1C(=O)Nc1cc(C)c2c(c1)C1CC1C(=O)N2 (stereo not drawn) [Compound 60]
6.60 to 7.00	–	6.00 to 6.60	6.00 to 6.60	6.00 to 6.60	O=C(Nc1cc(F)c2c(c1)C1CC1C(=O)N2)c1ocnc1CC(F)(F)F (stereo not drawn) [Compound 61]
5.30 to 6.00	–	< 5.30	< 5.30	5.30 to 6.00	CCc1ncoc1C(=O)Nc1cc(F)c2c(c1)C1CC1C(=O)N2 (stereo not drawn) [Compound 62]
> 7.00	–	6.60 to 7.00	6.00 to 6.60	> 7.00	Cc1cc(NC(=O)c2scnc2CC2CC2)cc2c1NC(=O)CC2 [Compound 63]
6.00 to 6.60	–	6.00 to 6.60	5.30 to 6.00	5.30 to 6.00	Cc1cc(NC(=O)c2scnc2CC(C)(C)C)cc2c1NC(=O)CC2 [Compound 64]
6.60 to 7.00	–	5.30 to 6.00	5.30 to 6.00	6.00 to 6.60	Cc1cc(NC(=O)c2scnc2CC(C)C)cc2c1NC(=O)CC2 [Compound 65]
6.60 to 7.00	–	6.00 to 6.60	6.00 to 6.60	6.60 to 7.00	CCCc1ncsc1C(=O)Nc1cc(C)c2c(c1)CCC(=O)N2 [Compound 66]
6.00 to 6.60	–	5.30 to 6.00	5.30 to 6.00	6.00 to 6.60	Cc1cc(NC(=O)c2scnc2C)cc2c1NC(=O)CC2 [Compound 67]
6.60 to 7.00	–	6.60 to 7.00	6.00 to 6.60	6.60 to 7.00	Cc1c(F)c(NC(=O)c2ncsc2CC(F)(F)F)cc2c1NC(=O)CC2 [Compound 72]
